Patent publication US12042523B2, “Compositions and methods for managing or improving bone disorders, joint disorders, cartilage disorders, or a combination thereof” (Unigen, Inc., priority 2014, dated 2024)

System: urine CTX-II (C-telopeptide of type II collagen)
Assay: Urine CTX-II ELISA in MIA-induced OA model
Format: in vivo, rat
Protocol: Treatment started a week before MIA injection. […] On the induction day, isoflurane (Lot #[…] Enterprise Ltd. […], India) anesthetized rats were injected with 0.8 mg of MIA (Lot #A0352046, Acros Organics, New Jersey, USA) in 50 μL saline solution into the intra-articular pocket of left femorotibial (knee) joint using 26 G needle an hour after treatment. Normal control rats were injected with an equal volume of saline. […] Body weights were measured once a week to calculate the respective weekly dosage of each group. The merit of combining UP1306 and UP446 was then evaluated using the Colby's equation (Colby, 1967). Pain sensitivity percent inhibition values were used to determine the calculated efficacy values and compared to the observed percent inhibition values of the composition. CTX-II ELISA was performed according to the kit manufacturer's specifications. […] Rat urine samples were thawed on ice and diluted 1:3 with Sample Diluent. 100 μL of samples and standards were added to a 96-well plate pre-coated with CTX-II antibody. The plate was covered and incubated at 37° C. for 2 hours. The liquid was aspirated from each well, then 100 μL of Detection Reagent A working solution was added to each well. The plate was covered and incubated at 37° C. for 1 hour. The solution was aspirated from each well and the plate was washed three times with 1× Wash Buffer. 100 μL of Detection Reagent B working solution was added to each well, then the plate was covered and incubated at 37° C. for 1 hour. The solution was aspirated from each well and the plate was washed five times with 1× Wash Buffer. 90 μL of Substrate Solution was added to each well, then the plate was covered and incubated at 37° C. for 30 minutes. […] Stop Solution was added to each well, and the optical density at 450 nm was detected using a Tecan Genios plate reader. CTX-II concentrations for each sample were determined by multiplying by the dilution factor and fitting the value to the standard curve. To offset the variations in urine flow between rats, values were normalized to total urine protein.

[1] = MIA-induced OA rats, urine, week 5 of daily oral treatment

Structure (SMILES): O=C(O)Cc1ccccc1Nc1c(Cl)cccc1Cl [Diclofenac]
- Ratio (CTX-II/Protein), uCTX-II normalized to total protein [1]: 64.41
- uCTX-II (Mean ± SD) [1]: 304 ± 233 ng/L
- reduction in urine CTX-II (after 5 weeks of daily oral treatment, diclofenac 10, UP1306+UP446 650, UP1306 400, UP446 250 mg/kg): 31.33%
